The values that follow come from ChEMBL document CHEMBL5257078, “Alkaloids and Polyacetylenes from Hippobroma longiflora with Antiangiogenesis Properties” (J Nat Prod, 2023).

One may read the IC50 as the point on the concentration scale where inhibition reaches its midpoint.

Values after ≈ are worked out from the molar mass of the structure shown.

Data set [1] can be described thus: Cytotoxicity against human EPC cells assessed as LDH release. Format: toxicity, cell-based.
The nature of data set [2]: Antiangiogenic activity in human EPC cells assessed as suppression of EPC tube formation incubated for 24 hrs by microscopic analysis. The class given is functional, cell-based.

Take `C[N@+]1([O-])CO[C@H](c2ccccc2)C[C@@H]1CCCCCC(=O)c1ccccc1`: the Activity result in data set [1] is “Non-Toxic”. Also, the IC50 in data set [2] was 32 µg/mL (≈ 87.1 µM).

As to `O=C(c1ccccc1)[C@H]1CN2O[C@@H]1CCC[C@H]2C[C@H](O)c1ccccc1`, the Activity entry in data set [1] is “Non-Toxic”. For the same molecule, the IC50 in data set [2] is 33.4 µg/mL (≈ 95 µM).

Take `C/C=C/C#C/C=C/c1c(O)cccc1CO`: the Activity entry in data set [1] is “Non-Toxic”. The IC50 in data set [2] amounted to 24.5 µg/mL (≈ 114 µM).

As for `C/C=C/C#C/C=C/[C@@]1(O)[C@H](CO)CC=C[C@H]1O`, the Activity entry in data set [1] was “Non-Toxic”. The IC50 in data set [2] amounted to 27.6 µg/mL (≈ 118 µM).

As to `O=C(c1ccccc1)[C@H]1CN2O[C@H]1CCC[C@@H]2C[C@H](O)c1ccccc1`, the Activity entry in data set [1] is reported as “Non-Toxic”. Besides, the IC50 in data set [2] worked out at 44 µg/mL (≈ 125 µM).

For the molecule `C/C=C/C#C/C=C\c1c(O)cccc1CO`, in data set [1], the Activity entry is given as “Non-Toxic”. For the same molecule, the IC50 in data set [2] turned out to be 21.1 µg/mL (≈ 98.5 µM).

For `O=C(c1ccccc1)[C@@H]1CN2O[C@@H]1CCC[C@H]2C[C@H](O)c1ccccc1`, the IC50 in data set [2] stood at 30.6 µg/mL (≈ 87.1 µM).

In the case of `CNC(=O)c1cc(Oc2ccc(NC(=O)Nc3ccc(Cl)c(C(F)(F)F)c3)cc2)ccn1` [SORAFENIB], the IC50 in data set [2] worked out at 3.7 µg/mL (≈ 7.96 µM).
